Results from PubChem BioAssay AID1963839 (Molecular Pharmacology Branch, DTP, NCI, 2024).

System: 817829-284-R-J1-PDC complex spheroid viability
Experiment: Anticancer human tumor 817829-284-R-J1-PDC patient-derived colon adenocarcinoma cell line growth inhibition [POLQ]
Details: for IC50: curve of first compound; for viability, T/C: stronger effect = lower value
Outline: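 Complex spheroid viability model combining PDC tumour cells with endothelial (HUVEC) and MSC stromal cells. Novobiocin, ART-558 or RP6685 were tested singly and in combination with standard and investigational anticancer drugs. Each was titrated in half-log steps from near clinical Cmax, or from 10 microM where Cmax was unknown.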

[1] = second compound 0.0316 µM, first compound 0.0316 µM
[2] = second compound 0.0316 µM, first compound 0.1 µM
[3] = second compound 0.0316 µM, first compound 0.316 µM
[4] = second compound 0.0316 µM, first compound 1 µM
[5] = second compound 0.0316 µM, first compound 3.16 µM
[6] = second compound 0.0316 µM, first compound 10 µM
[7] = second compound 0.1 µM, first compound 0.0316 µM
[8] = second compound 0.1 µM, first compound 0.1 µM
[9] = second compound 0.1 µM, first compound 0.316 µM
[10] = second compound 0.1 µM, first compound 1 µM
[11] = second compound 0.1 µM, first compound 3.16 µM
[12] = second compound 0.1 µM, first compound 10 µM
[13] = second compound 0.316 µM, first compound 0.0316 µM
[14] = second compound 0.316 µM, first compound 0.1 µM
[15] = second compound 0.316 µM, first compound 0.316 µM
[16] = second compound 0.316 µM, first compound 1 µM
[17] = second compound 0.316 µM, first compound 3.16 µM
[18] = second compound 0.316 µM, first compound 10 µM
[19] = second compound 1 µM, first compound 0.0316 µM
[20] = second compound 1 µM, first compound 0.1 µM
[21] = second compound 1 µM, first compound 0.316 µM
[22] = second compound 1 µM, first compound 1 µM
[23] = second compound 1 µM, first compound 3.16 µM
[24] = second compound 1 µM, first compound 10 µM
[25] = second compound 3.16 µM, first compound 0.0316 µM
[26] = second compound 3.16 µM, first compound 0.1 µM
[27] = second compound 3.16 µM, first compound 0.316 µM
[28] = second compound 3.16 µM, first compound 1 µM
[29] = second compound 3.16 µM, first compound 3.16 µM
[30] = second compound 3.16 µM, first compound 10 µM
[31] = second compound 10 µM, first compound 0.0316 µM
[32] = second compound 10 µM, first compound 0.1 µM
[33] = second compound 10 µM, first compound 0.316 µM
[34] = second compound 10 µM, first compound 1 µM
[35] = second compound 10 µM, first compound 3.16 µM
[36] = second compound 10 µM, first compound 10 µM
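Also: spheroids exposed to compounds for 7 days.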
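For viability, T/C in this document: 100% = DMSO vehicle-treated spheroids.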

Compound `CC(C)n1c(=O)n(C)c2cnc3cc(F)c(-c4ccc(OCCCN5CCCCC5)nc4)cc3c21` + Cc1cccc(N(C)C(=O)C2C(O)CCN2c2nc(C)cc(C(F)(F)F)c2C#N)c1 has an IC50 (second compound 0.0316 µM) of 6.74 µM, an IC50 (second compound 0.1 µM) of 7.64 µM and an IC50 (second compound 0.316 µM) of 8.32 µM. It also gave an IC50 (second compound 1 µM) of 5.97 µM, an IC50 (second compound 3.16 µM) of 8.23 µM and an IC50 (second compound 10 µM) of 6.08 µM. For the same compound, the viability, T/C [1] was 91.7%, the viability, T/C [2] was 77.1% and the viability, T/C [3] was 96.6%. For the same compound, the viability, T/C [4] was 86.3%, the viability, T/C [5] was 84.3% and the viability, T/C [6] was 32.1%. The viability, T/C [7] was 73.6%, the viability, T/C [8] was 107% and the viability, T/C [9] was 91.6%. The viability, T/C [10] was 76.8%, the viability, T/C [11] was 106% and the viability, T/C [12] was 37.5%. The viability, T/C [13] was 87.3%, the viability, T/C [14] was 83.3% and the viability, T/C [15] was 94.4%. For the same compound, the viability, T/C [16] was 87.6%, the viability, T/C [17] was 83% and the viability, T/C [18] was 43.8%. The viability, T/C [19] was 99.7%, the viability, T/C [20] was 86.5% and the viability, T/C [21] was 99.1%. For the same compound, the viability, T/C [22] was 72.6%, the viability, T/C [23] was 73.7% and the viability, T/C [24] was 34.4%. For the same compound, the viability, T/C [25] was 93.8%, the viability, T/C [26] was 70.6% and the viability, T/C [27] was 78.1%. It also gave a viability, T/C [28] of 100%, a viability, T/C [29] of 70.5% and a viability, T/C [30] of 45.8%. It also gave a viability, T/C [31] of 85.7%, a viability, T/C [32] of 81.6% and a viability, T/C [33] of 74%. For the same compound, the viability, T/C [34] was 67.8%, the viability, T/C [35] was 79% and the viability, T/C [36] was 28.9%.
For `CC(C)n1c(=O)n(C)c2cnc3cc(F)c(-c4ccc(OCCCN5CCCCC5)nc4)cc3c21` + Nc1ccc(C#CCN(C(=O)Cc2ncc(C(F)(F)F)cc2C(F)(F)F)c2ccc(F)cc2)nn1, the IC50 (second compound 0.0316 µM) was greater than 10 µM, the IC50 (second compound 0.1 µM) was 7.8 µM and the IC50 (second compound 0.316 µM) was 8.1 µM. The IC50 (second compound 1 µM) was 6.5 µM, the IC50 (second compound 3.16 µM) was 9.72 µM and the IC50 (second compound 10 µM) was 7.91 µM. It also gave a viability, T/C [1] of 84.8%, a viability, T/C [2] of 92.4% and a viability, T/C [3] of 79.6%. The viability, T/C [4] was 95.8%, the viability, T/C [5] was 85.7% and the viability, T/C [6] was 60.4%. The viability, T/C [7] was 85.2%, the viability, T/C [8] was 77.2% and the viability, T/C [9] was 94.5%. For the same compound, the viability, T/C [10] was 88.9%, the viability, T/C [11] was 84.8% and the viability, T/C [12] was 40.4%. It also gave a viability, T/C [13] of 96.1%, a viability, T/C [14] of 95% and a viability, T/C [15] of 110%. The viability, T/C [16] was 83.1%, the viability, T/C [17] was 81.3% and the viability, T/C [18] was 43.3%. For the same compound, the viability, T/C [19] was 95%, the viability, T/C [20] was 89.1% and the viability, T/C [21] was 103%. It also gave a viability, T/C [22] of 87.7%, a viability, T/C [23] of 76% and a viability, T/C [24] of 34.7%. It also gave a viability, T/C [25] of 81.8%, a viability, T/C [26] of 86.2% and a viability, T/C [27] of 105%. For the same compound, the viability, T/C [28] was 94.5%, the viability, T/C [29] was 92.8% and the viability, T/C [30] was 48.9%. For the same compound, the viability, T/C [31] was 81.7%, the viability, T/C [32] was 96% and the viability, T/C [33] was 106%. For the same compound, the viability, T/C [34] was 76.3%, the viability, T/C [35] was 82.2% and the viability, T/C [36] was 42%.
`C=CC(=O)N1CCN(c2nc(=O)n(-c3c(C)ccnc3C(C)C)c3nc(-c4c(O)cccc4F)c(F)cc23)C(C)C1` (stereo unspecified) + Cc1cccc(N(C)C(=O)C2C(O)CCN2c2nc(C)cc(C(F)(F)F)c2C#N)c1 was tested, and the IC50 (second compound 0.0316 µM) was 9.4 µM, the IC50 (second compound 0.1 µM) was 9.47 µM and the IC50 (second compound 0.316 µM) was 9.09 µM. The IC50 (second compound 1 µM) was 7.8 µM, the IC50 (second compound 3.16 µM) was 7.29 µM and the IC50 (second compound 10 µM) was greater than 10 µM. For the same compound, the viability, T/C [1] was 94.4%, the viability, T/C [2] was 140% and the viability, T/C [3] was 112%. The viability, T/C [4] was 105%, the viability, T/C [5] was 82.7% and the viability, T/C [6] was 48%. It also gave a viability, T/C [7] of 91.1%, a viability, T/C [8] of 109% and a viability, T/C [9] of 104%. It also gave a viability, T/C [10] of 110%, a viability, T/C [11] of 86.3% and a viability, T/C [12] of 48.2%. It also gave a viability, T/C [13] of 92.2%, a viability, T/C [14] of 109% and a viability, T/C [15] of 108%. It also gave a viability, T/C [16] of 83.5%, a viability, T/C [17] of 83.1% and a viability, T/C [18] of 46.9%. For the same compound, the viability, T/C [19] was 92.9%, the viability, T/C [20] was 91.2% and the viability, T/C [21] was 112%. The viability, T/C [22] was 99%, the viability, T/C [23] was 86.4% and the viability, T/C [24] was 39.9%. The viability, T/C [25] was 113%, the viability, T/C [26] was 125% and the viability, T/C [27] was 87.8%. It also gave a viability, T/C [28] of 89.3%, a viability, T/C [29] of 76.3% and a viability, T/C [30] of 39.9%. It also gave a viability, T/C [31] of 89.4%, a viability, T/C [32] of 104% and a viability, T/C [33] of 84%. It also gave a viability, T/C [34] of 113%, a viability, T/C [35] of 66.9% and a viability, T/C [36] of 54.9%.
